Measurements: PubChem BioAssay (NCI)
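Results reflect a 48-hour exposure of cells in 96-well plates to compound at five concentrations. TGI: concentration producing complete growth inhibition.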

Columns and labels:
Experiment in all cases: NCI anticancer screen, dose series, 48 h
HCC-2998 colon = tested on: HCC-2998 colon
RPMI-8226 leukemia = tested on: RPMI-8226 leukemia
SN12C renal = tested on: SN12C renal
CAKI-1 renal = tested on: CAKI-1 renal
SK-MEL-2 melanoma = tested on: SK-MEL-2 melanoma
NCI-H460 lung = tested on: NCI-H460 lung
A549 NSCLC = tested on: A549 NSCLC
UACC-257 melanoma = tested on: UACC-257 melanoma
HOP-62 NSCLC = tested on: HOP-62 NSCLC
NCI-H226 lung = tested on: NCI-H226 lung
UACC-62 melanoma = tested on: UACC-62 melanoma
OVCAR-5 ovarian = tested on: OVCAR-5 ovarian
HCT-116 colon = tested on: HCT-116 colon
NCI-H23 lung = tested on: NCI-H23 lung
SW-620 colon = tested on: SW-620 colon
BT-549 breast = tested on: BT-549 breast
HS 578T breast = tested on: HS 578T breast
HL-60(TB) leukemia = tested on: HL-60(TB) leukemia
DU-145 prostate = tested on: DU-145 prostate
COLO 205 colon = tested on: COLO 205 colon
SF-295 CNS = tested on: SF-295 CNS
LOX IMVI melanoma = tested on: LOX IMVI melanoma
OVCAR-8 ovarian = tested on: OVCAR-8 ovarian
SF-268 CNS = tested on: SF-268 CNS
SNB-19 CNS = tested on: SNB-19 CNS
SR leukemia = tested on: SR leukemia
EKVX NSCLC = tested on: EKVX NSCLC
HOP-92 NSCLC = tested on: HOP-92 NSCLC
RXF 393 renal = tested on: RXF 393 renal
IGROV1 ovarian = tested on: IGROV1 ovarian
M14 melanoma = tested on: M14 melanoma
T-47D breast = tested on: T-47D breast
UO-31 renal = tested on: UO-31 renal
TK-10 renal = tested on: TK-10 renal
A498 renal = tested on: A498 renal
HCT-15 colon = tested on: HCT-15 colon
K-562 leukemia = tested on: K-562 leukemia
SK-MEL-5 melanoma = tested on: SK-MEL-5 melanoma
786-0 renal = tested on: 786-0 renal
CCRF-CEM leukemia = tested on: CCRF-CEM leukemia
HT29 colon = tested on: HT29 colon
PC-3 prostate = tested on: PC-3 prostate
SK-MEL-28 melanoma = tested on: SK-MEL-28 melanoma
NCI-H522 lung = tested on: NCI-H522 lung
MDA-N = tested on: MDA-N
SNB-75 CNS = tested on: SNB-75 CNS
SF-539 CNS = tested on: SF-539 CNS
OVCAR-4 ovarian = tested on: OVCAR-4 ovarian
MCF7 breast = tested on: MCF7 breast
MDA-MB-231 breast = tested on: MDA-MB-231 breast
OVCAR-3 ovarian = tested on: OVCAR-3 ovarian
U251 CNS = tested on: U251 CNS
NCI/ADR-RES ovarian = tested on: NCI/ADR-RES ovarian
MOLT-4 leukemia = tested on: MOLT-4 leukemia
ACHN renal = tested on: ACHN renal
KM12 colon = tested on: KM12 colon
MDA-MB-435 = tested on: MDA-MB-435
SK-OV-3 ovarian = tested on: SK-OV-3 ovarian
MALME-3M melanoma = tested on: MALME-3M melanoma

For `Cn1c(=O)c2c(nc3n(Cc4ccccc4)c(=O)c(Br)cn23)n(C)c1=O`, the TGI (HCC-2998 colon) was > 100 µM, the TGI (RPMI-8226 leukemia) was > 100 µM and the TGI (SN12C renal) was > 100 µM. For the same compound, the TGI (CAKI-1 renal) was > 100 µM, the TGI (SK-MEL-2 melanoma) was > 100 µM and the TGI (NCI-H460 lung) was > 100 µM. The TGI (A549 NSCLC) was > 100 µM, the TGI (UACC-257 melanoma) was > 100 µM and the TGI (HOP-62 NSCLC) was > 100 µM. The TGI (NCI-H226 lung) was > 100 µM, the TGI (UACC-62 melanoma) was > 100 µM and the TGI (OVCAR-5 ovarian) was > 100 µM. For the same compound, the TGI (HCT-116 colon) was > 100 µM, the TGI (NCI-H23 lung) was > 100 µM and the TGI (SW-620 colon) was > 100 µM. For the same compound, the TGI (BT-549 breast) was > 100 µM, the TGI (HS 578T breast) was > 100 µM and the TGI (HL-60(TB) leukemia) was > 100 µM. The TGI (DU-145 prostate) was > 100 µM, the TGI (COLO 205 colon) was > 100 µM and the TGI (SF-295 CNS) was > 100 µM. The TGI (LOX IMVI melanoma) was > 100 µM, the TGI (OVCAR-8 ovarian) was > 100 µM and the TGI (SF-268 CNS) was > 100 µM. For the same compound, the TGI (SNB-19 CNS) was > 100 µM, the TGI (SR leukemia) was > 100 µM and the TGI (EKVX NSCLC) was > 100 µM. The TGI (HOP-92 NSCLC) was > 100 µM, the TGI (RXF 393 renal) was > 100 µM and the TGI (IGROV1 ovarian) was > 100 µM. For the same compound, the TGI (M14 melanoma) was > 100 µM, the TGI (T-47D breast) was > 100 µM and the TGI (UO-31 renal) was > 100 µM. The TGI (TK-10 renal) was > 100 µM, the TGI (A498 renal) was > 100 µM and the TGI (HCT-15 colon) was > 100 µM. For the same compound, the TGI (K-562 leukemia) was > 100 µM, the TGI (SK-MEL-5 melanoma) was > 100 µM and the TGI (786-0 renal) was > 100 µM. For the same compound, the TGI (CCRF-CEM leukemia) was > 100 µM, the TGI (HT29 colon) was > 100 µM and the TGI (PC-3 prostate) was > 100 µM. For the same compound, the TGI (SK-MEL-28 melanoma) was > 100 µM, the TGI (NCI-H522 lung) was > 100 µM and the TGI (MDA-N) was > 100 µM. The TGI (SNB-75 CNS) was > 100 µM, the TGI (SF-539 CNS) was > 100 µM and the TGI (OVCAR-4 ovarian) was > 100 µM. The TGI (MCF7 breast) was > 100 µM, the TGI (MDA-MB-231 breast) was > 100 µM and the TGI (OVCAR-3 ovarian) was > 100 µM. For the same compound, the TGI (U251 CNS) was > 100 µM, the TGI (NCI/ADR-RES ovarian) was > 100 µM and the TGI (MOLT-4 leukemia) was > 100 µM. For the same compound, the TGI (ACHN renal) was > 100 µM, the TGI (KM12 colon) was > 100 µM and the TGI (MDA-MB-435) was > 100 µM.
With `COC(=O)C1=C(O)C(C(=O)OC)[C@@]2(O)[C@@H](C(=O)OC)C(c3ccc(OC(=O)/C=C/c4ccccc4)cc3)C[C@@H]1[C@@H]2C(=O)OC` (some centres not stated) the TGI (HCC-2998 colon) was 27.3 µM, the TGI (SN12C renal) was 27.3 µM and the TGI (CAKI-1 renal) was 73 µM. The TGI (SK-MEL-2 melanoma) was 21.9 µM, the TGI (NCI-H460 lung) was 7.8 µM and the TGI (A549 NSCLC) was > 100 µM. The TGI (UACC-257 melanoma) was 25.4 µM, the TGI (SK-OV-3 ovarian) was > 100 µM and the TGI (HOP-62 NSCLC) was > 100 µM. It also gave a TGI (NCI-H226 lung) of 60.1 µM, a TGI (UACC-62 melanoma) of 22.6 µM and a TGI (OVCAR-5 ovarian) of 30.2 µM. For the same compound, the TGI (HCT-116 colon) was 17.8 µM, the TGI (NCI-H23 lung) was > 100 µM and the TGI (SW-620 colon) was > 100 µM. The TGI (BT-549 breast) was 60.1 µM, the TGI (HS 578T breast) was > 100 µM and the TGI (HL-60(TB) leukemia) was 32.6 µM. For the same compound, the TGI (DU-145 prostate) was > 100 µM, the TGI (COLO 205 colon) was 23.4 µM and the TGI (SF-295 CNS) was > 100 µM. For the same compound, the TGI (LOX IMVI melanoma) was 5.75 µM, the TGI (OVCAR-8 ovarian) was > 100 µM and the TGI (SF-268 CNS) was > 100 µM. The TGI (SNB-19 CNS) was > 100 µM, the TGI (SR leukemia) was 22.5 µM and the TGI (EKVX NSCLC) was 37.7 µM. The TGI (HOP-92 NSCLC) was > 100 µM, the TGI (RXF 393 renal) was 19.1 µM and the TGI (IGROV1 ovarian) was > 100 µM. For the same compound, the TGI (M14 melanoma) was 30.5 µM, the TGI (T-47D breast) was > 100 µM and the TGI (UO-31 renal) was 25.5 µM. For the same compound, the TGI (TK-10 renal) was 33.6 µM, the TGI (MALME-3M melanoma) was > 100 µM and the TGI (A498 renal) was > 100 µM. For the same compound, the TGI (HCT-15 colon) was 46.7 µM, the TGI (K-562 leukemia) was > 100 µM and the TGI (SK-MEL-5 melanoma) was 28.8 µM. The TGI (786-0 renal) was 42.5 µM, the TGI (CCRF-CEM leukemia) was > 100 µM and the TGI (HT29 colon) was 17 µM. The TGI (PC-3 prostate) was > 100 µM, the TGI (SK-MEL-28 melanoma) was > 100 µM and the TGI (NCI-H522 lung) was > 100 µM. The TGI (MDA-N) was 13.1 µM, the TGI (SNB-75 CNS) was > 100 µM and the TGI (SF-539 CNS) was 8.86 µM. The TGI (OVCAR-4 ovarian) was > 100 µM, the TGI (MCF7 breast) was > 100 µM and the TGI (MDA-MB-231 breast) was 63.6 µM. For the same compound, the TGI (OVCAR-3 ovarian) was 94 µM, the TGI (U251 CNS) was 28.5 µM and the TGI (NCI/ADR-RES ovarian) was > 100 µM. For the same compound, the TGI (ACHN renal) was > 100 µM, the TGI (KM12 colon) was > 100 µM and the TGI (MDA-MB-435) was > 100 µM.
With `COc1nc(-c2c[nH]c3ccccc23)cnc1N` the TGI (HCC-2998 colon) was > 100 µM, the TGI (RPMI-8226 leukemia) was 39.6 µM and the TGI (SN12C renal) was 43.5 µM. For the same compound, the TGI (CAKI-1 renal) was > 100 µM, the TGI (SK-MEL-2 melanoma) was 81.6 µM and the TGI (NCI-H460 lung) was > 100 µM. The TGI (A549 NSCLC) was > 100 µM, the TGI (UACC-257 melanoma) was 51.7 µM and the TGI (SK-OV-3 ovarian) was > 100 µM. The TGI (HOP-62 NSCLC) was > 100 µM, the TGI (UACC-62 melanoma) was 33.1 µM and the TGI (OVCAR-5 ovarian) was > 100 µM. For the same compound, the TGI (HCT-116 colon) was 55.7 µM, the TGI (SW-620 colon) was > 100 µM and the TGI (BT-549 breast) was > 100 µM. It also gave a TGI (HS 578T breast) of 54.2 µM, a TGI (HL-60(TB) leukemia) of 31.5 µM and a TGI (DU-145 prostate) of 70.1 µM. For the same compound, the TGI (COLO 205 colon) was > 100 µM, the TGI (SF-295 CNS) was > 100 µM and the TGI (LOX IMVI melanoma) was > 100 µM. For the same compound, the TGI (OVCAR-8 ovarian) was > 100 µM, the TGI (SF-268 CNS) was > 100 µM and the TGI (SNB-19 CNS) was > 100 µM. For the same compound, the TGI (SR leukemia) was 41.1 µM, the TGI (EKVX NSCLC) was 61.5 µM and the TGI (HOP-92 NSCLC) was 23.9 µM. The TGI (IGROV1 ovarian) was > 100 µM, the TGI (M14 melanoma) was 94.8 µM and the TGI (T-47D breast) was 82.8 µM. For the same compound, the TGI (UO-31 renal) was > 100 µM, the TGI (TK-10 renal) was > 100 µM and the TGI (A498 renal) was 38.5 µM. For the same compound, the TGI (HCT-15 colon) was > 100 µM, the TGI (K-562 leukemia) was > 100 µM and the TGI (SK-MEL-5 melanoma) was > 100 µM. It also gave a TGI (786-0 renal) of 36.4 µM, a TGI (CCRF-CEM leukemia) of 14.8 µM and a TGI (HT29 colon) of 46.2 µM. For the same compound, the TGI (PC-3 prostate) was > 100 µM, the TGI (SK-MEL-28 melanoma) was 64.6 µM and the TGI (MDA-N) was 48.9 µM. For the same compound, the TGI (SF-539 CNS) was > 100 µM, the TGI (OVCAR-4 ovarian) was > 100 µM and the TGI (MCF7 breast) was 84.1 µM. For the same compound, the TGI (MDA-MB-231 breast) was 59.1 µM, the TGI (OVCAR-3 ovarian) was > 100 µM and the TGI (U251 CNS) was > 100 µM. The TGI (NCI/ADR-RES ovarian) was > 100 µM, the TGI (MOLT-4 leukemia) was 54.9 µM and the TGI (ACHN renal) was > 100 µM. For the same compound, the TGI (KM12 colon) was > 100 µM and the TGI (MDA-MB-435) was > 100 µM.
